Source: US6822146B2, “Sulfonylurea-tolerant sunflower line M7” (priority 2000, dated 2004)
Like-named read-outs stand apart in the source and are kept apart here.

Experiments:
BC3-M4M7 = test: Test A field trial, phytotoxicity, variety K; type: in vivo, sunflower; details: variety K
From the text: (§1) To generate the hybrids C, D and E, the fourth generation self-pollinated maintainer mutant lines M4M12, M4M11 and M4M7 were chemically sterilized by applying at the bud “star” flower stage a small amount of gibberellic acid solution to sterilize the pollen according to the general method described in Sunflower Science Technology, J. F. Carter ed. (Number 19 in the series “Agronomy”) pp. 339-386. This treatment enables maintainer plants to behave as CMS inbred lines and allows the production of heterozygous resistant hybrids, with the herbicide resistant source coming from the female side. Such crosses allowed evaluating the sexual effect of the mutation source when introduced on the female side of a cross as described in crosses C, D and E versus the male side of a cross as described in crosses F, G and H. Labels I, J and K identify third generation CMS mutant lines crossed with fourth generation maintainer lines to maintain the highly heritable mutant trait in a male sterile homozygous resistant environment. One skilled in sunflower breeding art understands the meaning of such crosses.
(§2) A rating of 0% phytotoxicity means no crop injury.

BC3-M4M12 = test: Test A field trial, phytotoxicity, variety I; type: in vivo, sunflower; details: variety I
From the text: as §1, §2

BC4-M5M7 × PHA155 = test: Test C field phytotoxicity, BC4-M5M7 × PHA155; type: in vivo, sunflower
From the text: as §2

GA-M4M7 × RHA274 = test: Test A field trial, phytotoxicity, variety E; type: in vivo, sunflower; details: variety E
From the text: as §1, §2

GA-M4M12 × RHA274 = test: Test A field trial, phytotoxicity, variety C; type: in vivo, sunflower; details: variety C
From the text: as §1, §2

H89A × M4M12 = type: in vivo, sunflower; details: variety F
From the text: as §1, §2

[1] = system: Hybrid control: H89A × RHA274; type: in vivo, sunflower; details: variety A
From the text: as §1, §2

H89A × M4M11 = type: in vivo, sunflower; details: variety G
From the text: as §1, §2

H89A × M4M7 = type: in vivo, sunflower; details: variety H
From the text: as §1, §2

[2] = system: Inbred line control: H89A; type: in vivo, sunflower; details: variety B
From the text: as §1, §2

BC3-M4M11 = test: Test A field trial, phytotoxicity, variety J; type: in vivo, sunflower; details: variety J
From the text: as §1, §2

[3] = system: Homozygous resistant inbred lines, BC3-M4M12 (I), BC3-M4M11 (J) and BC3-M4M7 (K); test: Test A summary, homozygous resistant inbred lines; details: Test A application rates; for tolerance of homozygous resistant inbred lines I, J, K: triflusulfuron-methyl at 20 g a.i./ha
Method: In a small field trial, the sunflower varieties described in Table 4 were sprayed post-emergence with a variety of sulfonylurea herbicide treatments.
Broadcast post-emergence applications of formulated sulfonylurea herbicides were performed at the 6-leaf development stage using four randomly distributed replications. Application rates were chosen to match the usual use rates of these herbicides in the crops they are registered in Europe. All herbicides except for metsulfuron-methyl were sprayed in combination with Citowet® non-ionic ethoxylated alcohol at 0.25% volume of formulated product per volume of water applied per hectare.
The evaluation of the maximum (i.e. peak) injury to sunflower varieties by sulfonylurea herbicides was measured by visual ratings, which are listed in Table 5. A rating of 0% phytotoxicity means no crop injury. […] A rating of 100% means the complete destruction of all plants.

BC4-M5M12 × PHA155 = test: Test C field phytotoxicity, BC4-M5M12 × PHA155; type: in vivo, sunflower
From the text: as §2

GA-M4M11 × RHA274 = test: Test A field trial, phytotoxicity, variety D; type: in vivo, sunflower; details: variety D
From the text: as §1, §2

BC2-M3M12 = test: Test G control of volunteer sunflower, BC2-M3M12; type: in vivo; details: 240 g a.i./ha; rated 4 weeks after application; scale 0-100
[4] = system: H89A × RHA274 (sulfonylurea-susceptible hybrid); test: Test G control of volunteer sunflower, H89A × RHA274; type: in vivo; details: 240 g a.i./ha; rated 4 weeks after application; scale 0-100
[5] = system: mutants originating from M11 and M12; details: Test G rates; phenmedipham alone or combined with triflusulfuron-methyl
From the text: This test involved sulfonylurea-resistant sunflower progeny BC2-M3M11 and BC2-M3M12, derived from M11 and M12, respectively. Also, a sulfonylurea-susceptible hybrid, H89A×RHA274, was included for comparison. Plants were sprayed with formulated herbicides at the 4-leaf stage. The efficacy of the treatments on the sunflowers was visually rated 4 weeks after application, using a scale where 0 means no control of the sunflowers, 85 means sufficient efficacy level to stop plants from flowering and propagating, and 100 means a complete destruction of the mutants.
Weed control in sugar beet requires 2-3 herbicide applications per season to efficiently control weeds in this slow growing crop.

BC2-M3M11 = test: Test G control of volunteer sunflower, BC2-M3M11; type: in vivo; details: 240 g a.i./ha; rated 4 weeks after application; scale 0-100
[6] = postemergence 18.75 g a.i./ha, 7 DAT
[7] = postemergence 18.75 g a.i./ha, 15 DAT
[8] = postemergence 18.75 g a.i./ha, 30 DAT
[9] = postemergence 37.5 g a.i./ha, 7 DAT
[10] = postemergence 37.5 g a.i./ha, 15 DAT
[11] = postemergence 37.5 g a.i./ha, 30 DAT

COc1cc(OC)nc(NC(=O)NS(=O)(=O)c2ncccc2C(=O)N(C)C)n1 [Nicosulfuron, nicosulfuron]
Maximum Phytotoxicity (BC3-M4M7; 30 g a.i./ha post-emergence): 14% | Maximum Phytotoxicity (BC3-M4M12; 30 g a.i./ha post-emergence): 8% | Phytotoxicity Rating After Treatment (BC4-M5M7 × PHA155; [6]): 37% | Phytotoxicity Rating After Treatment (BC4-M5M7 × PHA155; [7]): 40% | Phytotoxicity Rating After Treatment (BC4-M5M7 × PHA155; [8]): 18% | Phytotoxicity Rating After Treatment (BC4-M5M7 × PHA155; [9]): 57% | Phytotoxicity Rating After Treatment (BC4-M5M7 × PHA155; [10]): 55% | Phytotoxicity Rating After Treatment (BC4-M5M7 × PHA155; [11]): 50% | Maximum Phytotoxicity (GA-M4M7 × RHA274; 30 g a.i./ha post-emergence): 13% | Maximum Phytotoxicity (GA-M4M12 × RHA274; 30 g a.i./ha post-emergence): 12% | Maximum Phytotoxicity (H89A × M4M12; 30 g a.i./ha post-emergence): 15% | Maximum Phytotoxicity ([1]; 30 g a.i./ha post-emergence): 33% | Maximum Phytotoxicity (H89A × M4M11; 30 g a.i./ha post-emergence): 20% | Maximum Phytotoxicity (H89A × M4M7; 30 g a.i./ha post-emergence): 16% | Maximum Phytotoxicity ([2]; 30 g a.i./ha post-emergence): 54% | Maximum Phytotoxicity (BC3-M4M11; 30 g a.i./ha post-emergence): 23% | tolerance of homozygous resistant lines compared with heterozygous hybrids [3]: the homozygous resistant lines were more tolerant | tolerance of homozygous resistant inbred lines I, J, K [3]: marginally tolerant | Phytotoxicity Rating After Treatment (BC4-M5M12 × PHA155; [6]): 28% | Phytotoxicity Rating After Treatment (BC4-M5M12 × PHA155; [7]): 20% | Phytotoxicity Rating After Treatment (BC4-M5M12 × PHA155; [8]): 18% | Phytotoxicity Rating After Treatment (BC4-M5M12 × PHA155; [9]): 42% | Phytotoxicity Rating After Treatment (BC4-M5M12 × PHA155; [10]): 52% | Phytotoxicity Rating After Treatment (BC4-M5M12 × PHA155; [11]): 50% | Maximum Phytotoxicity (GA-M4M11 × RHA274; 30 g a.i./ha post-emergence): 13%

COC(=O)Nc1cccc(OC(=O)Nc2cccc(C)c2)c1 [Phenmedipham]
Efficacy on BC2-M3M12 (BC2-M3M12): 7 | Efficacy on H89A × RHA274 [4]: 0 | control of sulfonylurea-susceptible or sulfonylurea-resistant volunteer sunflowers [5]: ineffective alone | Efficacy on BC2-M3M11 (BC2-M3M11): 0

COc1nc(C)nc(NC(=O)NS(=O)(=O)c2ccccc2OCCCl)n1 [Triasulfuron, triasulfuron]
Maximum Phytotoxicity (BC3-M4M7; 20 g a.i./ha post-emergence): 95% | Maximum Phytotoxicity (BC3-M4M12; 20 g a.i./ha post-emergence): 93% | Maximum Phytotoxicity (GA-M4M7 × RHA274; 20 g a.i./ha post-emergence): 97% | Maximum Phytotoxicity (GA-M4M12 × RHA274; 20 g a.i./ha post-emergence): 94% | Maximum Phytotoxicity (H89A × M4M12; 20 g a.i./ha post-emergence): 98% | Maximum Phytotoxicity ([1]; 20 g a.i./ha post-emergence): 100% | Maximum Phytotoxicity (H89A × M4M11; 20 g a.i./ha post-emergence): 98% | Maximum Phytotoxicity (H89A × M4M7; 20 g a.i./ha post-emergence): 98% | Maximum Phytotoxicity ([2]; 20 g a.i./ha post-emergence): 100% | Maximum Phytotoxicity (BC3-M4M11; 20 g a.i./ha post-emergence): 95% | tolerance of homozygous resistant inbred lines I, J, K [3]: as susceptible as the standards | Maximum Phytotoxicity (GA-M4M11 × RHA274; 20 g a.i./ha post-emergence): 99%
